{"source": "patent US6124305A", "about": "“Use of N-(substituted glycyl)-2-cyanopyrrolidines in inhibiting dipeptidyl peptidase-IV” (Novartis AG, priority 1999, dated 2000)", "key": {"[1]": {"target": "T1, DPP-IV (Homo sapiens, UniProt P27487)", "T1 construct": "Cell extract is prepared from cells solubilized in 10 mM Tris-HCl; host or cells: Caco-2", "T1 sequence (P27487 whole entry)": "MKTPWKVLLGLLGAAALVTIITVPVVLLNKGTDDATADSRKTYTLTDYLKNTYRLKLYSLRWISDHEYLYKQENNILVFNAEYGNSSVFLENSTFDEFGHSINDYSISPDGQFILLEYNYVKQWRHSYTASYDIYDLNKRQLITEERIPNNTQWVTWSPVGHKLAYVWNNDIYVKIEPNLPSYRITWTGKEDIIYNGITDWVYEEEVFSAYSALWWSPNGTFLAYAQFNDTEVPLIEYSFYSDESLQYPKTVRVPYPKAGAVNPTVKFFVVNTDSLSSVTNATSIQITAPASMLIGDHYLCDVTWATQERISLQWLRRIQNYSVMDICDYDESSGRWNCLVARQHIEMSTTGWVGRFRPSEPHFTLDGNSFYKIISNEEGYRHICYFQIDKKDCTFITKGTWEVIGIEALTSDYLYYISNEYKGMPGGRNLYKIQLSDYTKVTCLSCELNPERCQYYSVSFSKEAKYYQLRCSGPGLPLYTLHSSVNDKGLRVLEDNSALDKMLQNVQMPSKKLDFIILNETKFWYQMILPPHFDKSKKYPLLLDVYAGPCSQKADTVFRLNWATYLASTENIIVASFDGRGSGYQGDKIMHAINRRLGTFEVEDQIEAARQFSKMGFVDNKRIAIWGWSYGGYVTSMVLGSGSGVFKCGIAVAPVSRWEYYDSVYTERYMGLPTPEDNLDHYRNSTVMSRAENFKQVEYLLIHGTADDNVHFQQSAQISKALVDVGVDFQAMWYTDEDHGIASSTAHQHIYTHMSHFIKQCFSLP", "assay": "Caco-2 DPP-IV Assay (inhibition of DPP-IV activity from human colonic carcinoma cell extracts)", "format": "biochemical", "details": "human Caco-2 cell extract, H-Alanine-Proline-pNA substrate, pH 7.4, room temperature, 10 minutes"}, "[2]": {"target": "T2, human plasma DPP-IV (Homo sapiens, UniProt P27487)", "T2 construct": "DPP-IV activity in human and rat plasma; from tissue; host or cells: human plasma", "T2 sequence (P27487 39-766 limits assumed)": "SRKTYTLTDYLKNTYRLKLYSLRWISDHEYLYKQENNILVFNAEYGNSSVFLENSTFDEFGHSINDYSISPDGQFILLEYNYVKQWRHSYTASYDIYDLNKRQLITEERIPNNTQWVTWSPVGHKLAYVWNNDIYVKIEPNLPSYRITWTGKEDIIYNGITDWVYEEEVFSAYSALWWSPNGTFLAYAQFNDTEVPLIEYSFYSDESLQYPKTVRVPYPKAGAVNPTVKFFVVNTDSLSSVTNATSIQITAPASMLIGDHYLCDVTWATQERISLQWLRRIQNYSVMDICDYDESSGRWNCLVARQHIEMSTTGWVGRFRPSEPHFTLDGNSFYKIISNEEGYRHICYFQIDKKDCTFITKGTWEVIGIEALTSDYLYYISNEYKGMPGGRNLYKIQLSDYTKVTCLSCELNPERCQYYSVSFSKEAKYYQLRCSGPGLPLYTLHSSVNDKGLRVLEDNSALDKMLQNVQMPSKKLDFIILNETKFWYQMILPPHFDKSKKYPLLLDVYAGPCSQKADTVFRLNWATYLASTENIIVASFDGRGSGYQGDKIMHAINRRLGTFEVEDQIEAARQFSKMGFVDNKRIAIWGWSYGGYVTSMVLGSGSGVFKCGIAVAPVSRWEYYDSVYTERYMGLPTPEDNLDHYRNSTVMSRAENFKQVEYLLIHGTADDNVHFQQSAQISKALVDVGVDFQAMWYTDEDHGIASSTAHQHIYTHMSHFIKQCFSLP", "assay": "human plasma DPP-IV inhibition assay", "format": "biochemical", "details": "H-Glycine-Proline-AMC substrate, pH 7.8, room temperature, 20 min"}, "[3]": {"target": "T3, rat plasma DPP-IV (Rattus norvegicus, UniProt P14740)", "T3 construct": "DPP-IV activity in human and rat plasma; from tissue; host or cells: rat plasma", "T3 sequence (P14740 37-767 limits assumed)": "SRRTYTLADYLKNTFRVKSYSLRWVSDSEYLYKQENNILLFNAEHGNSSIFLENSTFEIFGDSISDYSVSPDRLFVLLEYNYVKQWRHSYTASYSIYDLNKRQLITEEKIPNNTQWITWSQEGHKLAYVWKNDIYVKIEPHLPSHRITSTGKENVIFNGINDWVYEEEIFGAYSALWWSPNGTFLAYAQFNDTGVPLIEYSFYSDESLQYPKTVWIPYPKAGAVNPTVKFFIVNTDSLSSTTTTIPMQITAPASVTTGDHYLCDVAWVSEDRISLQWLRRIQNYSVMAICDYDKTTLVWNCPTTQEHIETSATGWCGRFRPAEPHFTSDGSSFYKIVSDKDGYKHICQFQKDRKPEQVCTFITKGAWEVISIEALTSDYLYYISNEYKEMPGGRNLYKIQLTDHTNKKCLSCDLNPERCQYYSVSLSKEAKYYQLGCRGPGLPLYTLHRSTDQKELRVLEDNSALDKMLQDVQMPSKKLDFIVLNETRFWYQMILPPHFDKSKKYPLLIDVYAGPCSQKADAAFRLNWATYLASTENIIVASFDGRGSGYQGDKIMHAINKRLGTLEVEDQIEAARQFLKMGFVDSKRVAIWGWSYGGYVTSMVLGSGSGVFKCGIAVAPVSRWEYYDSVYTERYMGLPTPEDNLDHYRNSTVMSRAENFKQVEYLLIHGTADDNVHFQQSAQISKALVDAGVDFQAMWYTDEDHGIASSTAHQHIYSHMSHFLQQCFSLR", "assay": "rat plasma DPP-IV inhibition assay", "format": "biochemical", "details": "H-Glycine-Proline-AMC substrate, pH 7.8, room temperature, 20 min", "method": "Briefly, five μl of plasma are added to 96-well flat-bottom microtiter plates (Falcon), followed by the addition of 5 μl of 80 mM MgCl2 in incubation buffer (25 mM HEPES, 140 mM NaCl, 1% RIA-grade BSA, pH 7.8). After a 5 min. incubation at room temperature, the reaction is initiated by the addition of 10 μl of incubation buffer containing 0.1 mM substrate (H-Glycine-Proline-AMC; AMC is 7-amino-4-methylcoumarin). The plates are covered with aluminum foil (or kept in the dark) and incubated at room temperature for 20 min. […] A fluorescence-concentration curve of free AMC is generated using 0-50 μM solutions of AMC in assay buffer. The curve generated is linear and is used for interpolation of substrate consumption (catalytic activity in nmoles substrate cleaved/min). As with the previous assay, the potency of the test compounds as DPP-IV inhibitors, expressed as IC50, is calculated from 8-point, dose-response curves using a 4 parameter logistic function."}, "[4]": {"tested_on": "insulin resistant rats", "assay": "early insulin response to an oral glucose challenge in insulin resistant rats", "format": "in vivo, Male Sprague-Dawley rats", "details": "10 μmol/kg orally in CMC, high fat diet rats, oral glucose 1 g/kg 30 minutes after compound; % increase of the mean of the control animals"}}, "note": "pIC50: −log10 of the molar value. Structures can show the parent of a compound that is named as a salt.", "data": [{"smiles": "CC1(C)C2CCC(CNCC(=O)N3CCC[C@H]3C#N)C1C2", "note": "(single isomer, unassigned) [Ex. 25, Pyrrolidine, 1-[[(6,6-dimethylbicyclo[3.1.1]hept-2-yl)methyl]amino]acetyl-2-cyano-[1S[1α,2α(S*),5α]]-(S)--, monohydrochloride]", "values": [{"measurement": "pIC50", "setting": "[1]", "result": 6.85}, {"measurement": "pIC50", "setting": "[2]", "result": 6.96}, {"measurement": "pIC50", "setting": "[3]", "result": 6.85}]}, {"smiles": "N#Cc1ccc(NCCNCC(=O)N2CCC[C@H]2C#N)nc1", "note": "[Ex. 3, 1-[2-[(5-cyanopyridin-2-yl)amino]ethylamino]acetyl-2-cyano-(S)-pyrrolidine dihydrochloride]", "values": [{"measurement": "Increase of Insulin Response at 10 μmol/kg", "setting": "[4]", "result": 66, "unit": "%"}]}, {"smiles": "N#C[C@@H]1CCCN1C(=O)CNC1(CO)CCCC1", "note": "[Ex. 5, 1-[(1-hydroxymethylcyclopent-1-yl)amino]acetyl-2-cyano-(S)-pyrrolidine]", "values": [{"measurement": "Increase of Insulin Response at 10 μmol/kg", "setting": "[4]", "result": 108, "unit": "%"}]}, {"smiles": "N#C[C@@H]1CCCN1C(=O)CNCCNc1nccc(Cl)n1", "note": "[Ex. 7A, 1-[2-[(4-chloropyrimidin-2-yl)amino]ethylamino]acetyl-2-cyano-(S)-pyrrolidine]", "values": [{"measurement": "pIC50", "setting": "[1]", "result": 6.78}]}, {"smiles": "N#C[C@@H]1CCCN1C(=O)CNCCNc1ncccc1Cl", "note": "[Ex. 7B, 1-[2-[(3-chloropyridin-2-yl)amino]ethylamino]acetyl-2-cyano-(S)-pyrrolidine]", "values": [{"measurement": "pIC50", "setting": "[1]", "result": 6.76}]}, {"smiles": "N#C[C@@H]1CCCN1C(=O)CNCCNc1nccc(C(F)(F)F)n1", "note": "[Ex. 7C]", "values": [{"measurement": "pIC50", "setting": "[1]", "result": 6.54}]}, {"smiles": "N#C[C@@H]1CCCN1C(=O)CNCCc1ccccc1Cl", "note": "[Ex. 7D, 1-[(2-chlorophenyl)ethylamino]acetyl-2-cyano-(S)-pyrrolidine]", "values": [{"measurement": "pIC50", "setting": "[1]", "result": 6.42}]}, {"smiles": "N#C[C@@H]1CCCN1C(=O)CNCCNc1ccc([N+](=O)[O-])cn1", "note": "[Ex. 8, 1-[2-[(5-nitropyridin-2-yl)amino]ethylamino]acetyl-2-cyano-(S)pyrrolidine]", "values": [{"measurement": "Increase of Insulin Response at 10 μmol/kg", "setting": "[4]", "result": 144, "unit": "%"}]}, {"smiles": "N#C[C@@H]1CCCN1C(=O)CNCCNc1ncc(C(F)(F)F)cc1Cl", "note": "[Ex. 9A, 1-[2-[(3-chloro-5-trifluoromethylpyridin-2-yl)amino]ethylamino]acetyl-2-cyano-(S)-pyrrolidine]", "values": [{"measurement": "pIC50", "setting": "[1]", "result": 6.00}]}, {"smiles": "N#C[C@@H]1CCCN1C(=O)CNCCNc1ncc(Cl)cc1Cl", "note": "[Ex. 9C, 1-[2-[(3,5-dichloropyridin-2-yl)amino]ethylamino]acetyl-2-cyano-(S)-pyrrolidine]", "values": [{"measurement": "pIC50", "setting": "[1]", "result": 6.53}]}, {"smiles": "COc1cc(Br)c(CCNCC(=O)N2CCC[C@H]2C#N)cc1OC", "note": "[Ex. 11, 1-[2-(2-bromo-4,5-dimethoxyphenyl)ethylamino]acetyl-2-cyano-(S)-pyrrolidine]", "values": [{"measurement": "pIC50", "setting": "[1]", "result": 6.67}]}, {"smiles": "CC(C)OCCCNCC(=O)N1CCC[C@H]1C#N", "note": "[Ex. 12, 1-[3-(isopropoxy)propylamino]acetyl-2-cyano-(S)-pyrrolidine monohydrochloride]", "values": [{"measurement": "pIC50", "setting": "[1]", "result": 6.55}, {"measurement": "pIC50", "setting": "[2]", "result": 7.02}, {"measurement": "pIC50", "setting": "[3]", "result": 7.42}, {"measurement": "Increase of Insulin Response at 10 μmol/kg", "setting": "[4]", "result": 59, "unit": "%"}]}, {"smiles": "N#C[C@@H]1CCCN1C(=O)CNCCCN1CCCC1=O", "note": "[Ex. 14, 1-[3-(2-oxo-pyrrolidin-1-yl)propylamino]acetyl-2-cyano-(S)-pyrrolidine monohydrochloride]", "values": [{"measurement": "pIC50", "setting": "[1]", "result": 6.96}, {"measurement": "pIC50", "setting": "[2]", "result": 7.02}, {"measurement": "pIC50", "setting": "[3]", "result": 7.62}]}, {"smiles": "CCOc1ccc(CCNCC(=O)N2CCC[C@H]2C#N)cc1", "note": "[Ex. 16, Pyrrolidine, 1-[[2-(4-ethoxyphenyl)ethyl]amino]acetyl-2-cyano-, (S)--, monohydrochloride]", "values": [{"measurement": "pIC50", "setting": "[1]", "result": 6.89}, {"measurement": "pIC50", "setting": "[2]", "result": 6.77}, {"measurement": "pIC50", "setting": "[3]", "result": 7.22}]}, {"smiles": "N#C[C@@H]1CCCN1C(=O)CN[C@@H]1CCN(Cc2ccccc2)C1", "note": "[Ex. 17, Pyrrolidine, 1-[(1-phenylmethyl-3-pyrrolidinyl)amino]acetyl-2-cyano-, (S)--(R)--, dihydrochloride]", "values": [{"measurement": "pIC50", "setting": "[1]", "result": 7.22}, {"measurement": "pIC50", "setting": "[2]", "result": 6.60}, {"measurement": "pIC50", "setting": "[3]", "result": 6.92}]}, {"smiles": "COc1ccc(CCNCC(=O)N2CCC[C@H]2C#N)cc1", "note": "[Ex. 18, Pyrrolidine, 1-[[2-(4-methoxyphenyl)ethyl]amino]acetyl-2-cyano-, (S)--, monohydrochloride]", "values": [{"measurement": "pIC50", "setting": "[1]", "result": 7.00}, {"measurement": "pIC50", "setting": "[2]", "result": 6.80}, {"measurement": "pIC50", "setting": "[3]", "result": 7.15}]}, {"smiles": "COc1cccc(CCNCC(=O)N2CCC[C@H]2C#N)c1", "note": "[Ex. 19, Pyrrolidine, 1-[[2-(3-methoxyphenyl)ethyl]amino]acetyl-2-cyano-, (S)--, monohydrochloride]", "values": [{"measurement": "pIC50", "setting": "[1]", "result": 6.92}, {"measurement": "pIC50", "setting": "[2]", "result": 6.74}, {"measurement": "pIC50", "setting": "[3]", "result": 7.30}]}, {"smiles": "CN(CCCNCC(=O)N1CCC[C@H]1C#N)c1ccccc1", "note": "[Ex. 22, Pyrrolidine, 1-[[3-[(phenyl)(methyl)amino]propyl]amino]acetyl-2-cyano-, (S)--, dihydrochloride]", "values": [{"measurement": "pIC50", "setting": "[1]", "result": 6.82}, {"measurement": "pIC50", "setting": "[2]", "result": 6.77}, {"measurement": "pIC50", "setting": "[3]", "result": 7.22}]}, {"smiles": "COc1ccc(CCNCC(=O)N2CCC[C@H]2C#N)cc1OC", "note": "[Ex. 23, Pyrrolidine, 1-[2-[(3,4-dimethoxyphenyl)ethyl]amino]acetyl-2-cyano-, (S)--, monohydrochloride]", "values": [{"measurement": "pIC50", "setting": "[1]", "result": 7.30}, {"measurement": "pIC50", "setting": "[2]", "result": 7.40}, {"measurement": "pIC50", "setting": "[3]", "result": 7.40}]}, {"smiles": "COc1ccc(OC)c(CCNCC(=O)N2CCC[C@H]2C#N)c1", "note": "[Ex. 26, Pyrrolidine, 1-[[2-(2,5-dimethoxyphenyl)ethyl]amino]acetyl-2-cyano-. (S)--, monohydrochloride]", "values": [{"measurement": "pIC50", "setting": "[1]", "result": 6.77}, {"measurement": "pIC50", "setting": "[2]", "result": 6.62}, {"measurement": "pIC50", "setting": "[3]", "result": 7.15}]}, {"smiles": "N#C[C@@H]1CCCN1C(=O)CNCCC1=CCCCC1", "note": "[Ex. 27, Pyrrolidine, 1-[[2-(1-cyclohexenyl-1-yl)ethyl]amino]acetyl-2-cyano-, (S)--, monohydrochloride]", "values": [{"measurement": "pIC50", "setting": "[1]", "result": 6.51}, {"measurement": "pIC50", "setting": "[2]", "result": 6.82}, {"measurement": "pIC50", "setting": "[3]", "result": 6.80}]}, {"smiles": "N#C[C@@H]1CCCN1C(=O)CNCCc1ccccn1", "note": "[Ex. 30, Pyrrolidine, 1-[[2-(2-pyridinyl)ethyl]amino]acetyl-2-cyano-, (S)--, dihydrochloride]", "values": [{"measurement": "pIC50", "setting": "[1]", "result": 6.19}, {"measurement": "pIC50", "setting": "[2]", "result": 7.10}, {"measurement": "pIC50", "setting": "[3]", "result": 7.05}]}, {"smiles": "N#C[C@@H]1CCCN1C(=O)CNCc1ccccc1Sc1ccccc1CO", "note": "[Ex. 35, Pyrrolidine, 1-[[[2-[(2-hydroxymethyl)phenyl]thio]phenylmethyl]amino]acetyl-2-cyano-,(S)--, monohydrochloride]", "values": [{"measurement": "pIC50", "setting": "[1]", "result": 6.89}, {"measurement": "pIC50", "setting": "[2]", "result": 5.96}, {"measurement": "pIC50", "setting": "[3]", "result": 6.47}]}, {"smiles": "COc1ccccc1CCNCC(=O)N1CCC[C@H]1C#N", "note": "[Ex. 36, Pyrrolidine, 1-[[2-(2-methoxyphenyl)ethyl]amino]acetyl-2-cyano-, (S)--, monohydrochloride]", "values": [{"measurement": "pIC50", "setting": "[1]", "result": 6.80}, {"measurement": "pIC50", "setting": "[2]", "result": 6.77}, {"measurement": "pIC50", "setting": "[3]", "result": 7.10}]}, {"smiles": "N#C[C@@H]1CCCN1C(=O)CNCCc1ccc(Cl)cc1Cl", "note": "[Ex. 39, Pyrrolidine, 1-[[2-(2,4-dichlorophenyl)ethyl]amino]acetyl-2-cyano-, (S), monohydrochloride]", "values": [{"measurement": "pIC50", "setting": "[1]", "result": 6.42}, {"measurement": "pIC50", "setting": "[2]", "result": 6.66}, {"measurement": "pIC50", "setting": "[3]", "result": 6.70}]}, {"smiles": "C[C@H](NCC(=O)N1CCC[C@H]1C#N)[C@H](O)c1ccccc1", "note": "[Ex. 41, Pyrrolidine, 1-[(2-hydroxy-2-phenylethyl)amino]acetyl-2-cyano-[2S-[1R*,2S*]-monohydrochloride]", "values": [{"measurement": "pIC50", "setting": "[1]", "result": 6.85}, {"measurement": "pIC50", "setting": "[2]", "result": 7.00}, {"measurement": "pIC50", "setting": "[3]", "result": 7.30}]}, {"smiles": "N#C[C@@H]1CCCN1C(=O)CNCCc1ccccc1F", "note": "[Ex. 42, Pyrrolidine, 1-[[2-(2-fluorophenyl)ethyl]amino]acetyl-2-cyano-, (S)--, monohydrochloride]", "values": [{"measurement": "pIC50", "setting": "[1]", "result": 6.62}, {"measurement": "pIC50", "setting": "[2]", "result": 6.85}, {"measurement": "pIC50", "setting": "[3]", "result": 6.74}]}, {"smiles": "COc1cc(CCNCC(=O)N2CCC[C@H]2C#N)cc(OC)c1", "note": "[Ex. 46, Pyrrolidine, 1-[2-[(3,5-dimethoxyphenyl)ethyl]amino]acetyl-2-cyano-, (S)--, monohydrochloride]", "values": [{"measurement": "pIC50", "setting": "[1]", "result": 6.82}, {"measurement": "pIC50", "setting": "[2]", "result": 6.55}, {"measurement": "pIC50", "setting": "[3]", "result": 7.22}]}, {"smiles": "N#C[C@@H]1CCCN1C(=O)CNC1CCN(Cc2ccccc2)CC1", "note": "[Ex. 66, Pyrrolidine, 1-[(1-phenylmethyl-4-piperidinyl)amino]acetyl-2-cyano-, (S)--, monohydrochloride]", "values": [{"measurement": "pIC50", "setting": "[1]", "result": 7.22}, {"measurement": "pIC50", "setting": "[2]", "result": 6.89}, {"measurement": "pIC50", "setting": "[3]", "result": 7.40}]}]}
